Source: patent US10294226B2, “Small molecule inhibitors of the JAK family of kinases” (Janssen Pharmaceutica NV, priority 2016, dated 2019)
≈ marks a conversion by molar mass, not a printed value. Where two headings read alike, the source gives them in different places.

Key:
[1] = system: IL-2 pSTAT5 (JAK1/JAK3); test: IL-2 pSTAT5 (JAK1/JAK3) cellular assay, AlphaLISA in PBMCs; format: cell-based; settings: PBMC, IL-2 5 ng/mL
Description: The AlphaLISA assay (based on Alpha Technology from PerkinElmer) was performed by first plating freshly thawed PBMCs (Biological Specialty Corporation) in 384-well plates at 30,000 cells per 4 μL per well in HBSS (Hanks' Balanced Salt Solution) containing 0.1% IgG (immunoglobulin G)-free, protease-free BSA (bovine serum albumin) (Jackson ImmunoResearch Cat. No. 001-000-161). The cells were then treated with 2 μL/well of compounds diluted in DMSO at half-log titrated concentrations, with a highest test concentration of 10 μM and 0.5% final DMSO concentration, for thirty minutes at 37° C. […] The cellular reactions were terminated by the addition of 2 μL/well of lysis buffer (PerkinElmer Cat. No. ALSU-PST5-A10K) followed by an incubation of five minutes at room temperature. 5 μL/well of acceptor mix (PerkinElmer Cat. No. ALSU-PST5-A10K) was added to the cells and incubated in the dark for one hour at room temperature. Then, 5 μL/well of donor mix (PerkinElmer Cat. No. ALSU-PST5-A10K) was added to the cells and incubated in the dark overnight at room temperature. Finally, the plates were read on a PerkinElmer EnVision for detection of the time-resolved fluorescence signal. The percentage of IL-2-dependent pSTAT5 inhibition was determined at the compound test concentrations; and for each compound, a dose curve was generated and the IC50 was calculated. Compound IC50 was calculated by nonlinear regression, sigmoidal dose response analysis of the half-log dilution titration curve of the compound concentration vs. Alpha signal. The acronym “Alpha” stands for amplified luminescent proximity homogeneous assay; the Alpha signal is a luminescent/fluorescent signal.

[2] = pH 6.5
[3] = system: P-gp (MDR1); test: MDCK-MDR1 permeability assay; format: in vitro ADME; settings: dog; for Papp A→B at 60 min, 5 μM: apical to basolateral; for Papp B→A at 60 min, 5 μM: MDCK-MDR1, pH 7.4, basolateral to apical; for efflux ratio at 60 min, 5 μM: pH 7.4, MDCK-MDR1, @ 5 μM, read-out: Papp(B-A)/Papp(A-B) efflux ratio
Description: (§5) Permeability measurements were conducted according to the Cyprotex protocol using the MDCK-MDR1 cell line obtained from the NIH (Rockville, Md., USA). […] The cells in this assay form a cohesive sheet of a single cell layer filing the surface area of the culture dish, also known as a confluent monolayer, and on day four the test compound was added to the apical side of the membrane and the transport of the compound across the monolayer was monitored over a time period of 60 min.
(§6) Test compounds were dissolved in DMSO at a concentration of 10 mM. The dosing solutions were prepared by diluting test compound with assay buffer (Hanks Balanced Salt Solution), pH 7.4, at a final concentration of 5 μM. For assessment of apical to basolateral (“A-B”) permeability, buffer was removed from the apical compartment and replaced with test compound dosing solution with or without the permeability glycoprotein (“PgP”, “P-gP”, “Pgp” or “P-gp”) inhibitor elacridar (2 μM). For assessment of basolateral to apical (“B-A”) permeability, buffer was removed from the companion plate and replaced with test compound dosing solution. Incubations were carried out in duplicate at 37° C. in an atmosphere of 5% CO2 with a relative humidity of 95%. […] After incubation for 60 minutes, apical and basolateral samples were diluted and test compounds quantified by LC/MS/MS using an 8-point calibration in the range 0.0039 to 3 μM with appropriate dilution of the samples (receiver dilution factor=1; donor and C0 dilution factor=10). The permeability coefficient (Papp) for each compound was calculated from the following equation: Papp=(dQ/dt)/(C0×S), where dQ/dt is the rate of permeation of the drug across the cells, C0 is the donor compartment concentration at time zero, and S is the area of the cell monolayer.
(§7) The percent recovery was measured for all incubation conditions.
(§8) Papp(A-B) gives an indication of permeation extent across the cells in this assay, which is envisaged to model the transcellular transport across Pgp-expressing cells, such as Pgp-expressing gastrointestinal tract cells.
(§9) The integrity of each monolayer was monitored by examining the permeation of lucifer yellow by fluorimetric analysis.

[4] = target: Tyk2-JH1JH2 (Homo sapiens (Human), UniProt P29597, C1142A/C936A); test: Enzymatic inhibition assay (HTMS); format: biochemical; settings: 50 μM ATP; read-out: Tyk2_I_JH1JH2 IC50
Source text: (§1) JAK1-JH1JH2 (574-1154 with a His-GST Tag and a C-terminal tev (ENLYFQ-G) cleavage site), JAK3-JH1JH2 (512-1124 with a GST Tag and a C-terminal tev (ENLYFQ-G) cleavage site), and Tyk2-JH1JH2 (8H_tev_580-1182-C936A-C1142A with a C-terminal tev (ENLYFQ-G) cleavage site) were purified internally. […] LC/MS grade water and acetonitrile (ACN), were purchased from HoneyWell, Burdick & Jackson (Muskegon, Mich., USA). Dimethylsulfoxide 99.8% (DMSO) and trifluoroacetic acid 99.5% (TFA) were purchased from EMD Chemical (Gibbstown, N.J., USA). Adenosine triphosphate (ATP), 4-morpholinepropanesulfonic acid (MOPS), magnesium chloride (MgCl2), ethylenediaminetetraacetic acid (EDTA), dithiothreitol (DTT), formic acid>95% (FA) and Tween-20 were purchased from Sigma (St Louis, Mo., USA). 384-well polypropylene plates, Cat#781280 were purchased from Greiner (Monroe, N.C.), RapidFire™ cartridge A C4 Column (Agilent Technologies, Santa Clara, Calif.).
(§2) The HTMS experiments were performed in positive ionization mode on a RapidFire 300 instrument (Agilent Technologies, Santa Clara, Calif.), coupled with an ABSiex QTrap 4000 system with an Electrospray Ionization source (RF-MS) (Concord, ON, Canada). […] The entire system was operated using the RapidFire software interfaced with Analyst software for the mass spectrometer.
(§3) 11-point dosing series were made for each compound by serially diluting 1:3 or 1:4 in DMSO, with point 12 being a DMSO control. From the serial dilution plates, sample was transferred to a 384 wells assay plate (#781280, Greiner, Monroe, N.C.) using Labcyte Echo (Sunnyvale, Calif.), or Biosero ATS (San Diego, Calif.). The compounds were tested in duplicate. Column 12 was used for positive controls, and column 24 contained negative controls with no enzyme added. A compound from our internal collection, with inhibitory activity for JAK isoforms, was used as a reference compound. The final concentration of DMSO was ≤0.25% in a 20 μL reaction. The enzyme reaction was initiated by the addition of 10 μL of enzyme and ATP mixture to 10 μL of substrate solution prepared in reaction buffer (50 mM MOPS pH 7.5, 10 mM MgCl2, 1 mM EDTA, 2 mM DTT, 0.002% Tween-20). The Tyk2 enzyme was pre-incubated with 2 mM ATP for 30 min prior to the reaction initiation. Immediately after the addition of the enzyme to the reaction mixture, the plate was centrifuged at 1000 rpm for 1 minute and incubated at 25° C. for 45 minutes for JAK3 and 90 minutes for JAK1, JAK2 and Tyk2. The reaction was quenched by the addition of 20 μL of 0.5% TFA containing 0.15 μM of internal standard peptide using Multidrop Combi reagent dispenser (Thermo Scientific, Waltham, Mass.). […] After the quench, the assay plate was centrifuged at 3000 rpm for 3 minutes and sealed with pierceable aluminum foil (Cat#06644-001, Agilent) using a PlateLoc (Agilent Technologies, Santa Clara, Calif.). The plates then were transferred on to the RapidFire for the MS analysis. Compound inhibition was assessed by a decrease of the phosphorylated product levels in sample wells compared to the non-inhibited enzyme reaction.
(§4) The sample analysis on the RapidFire was performed using a mobile phase A1 consisting of Water/TFA/FA (100:0.01:0.1, v/v/v), a mobile phase B1 consisting of ACN/Water/TFA/FA (80:20:0.01:0.1, v/v/v). […] The samples were aspirated directly from the 384-well assay plate and delivered onto RF-MS microscale solid-phase C4 extraction cartridge (Type A). The undesired component such as salt, cofactor, detergent and large protein were washed out and the retained analytes (substrate, product and IS) were coeluted directly onto the AB Siex Qtrap 4000 system.

[5] = target: JAK3-JH1JH2 (Homo sapiens (Human), UniProt P52333); test: Enzymatic inhibition assay (HTMS); format: biochemical; settings: 150 μM ATP; read-out: JAK3_I_JH1JH2 IC50
Source text: as §1, §2, §3, §4

[6] = target: JAK1-JH1JH2 (Homo sapiens (Human), UniProt P23458); test: Enzymatic inhibition assay (HTMS); format: biochemical; settings: 12.5 μM ATP; read-out: JAK1_JH1JH2 IC50
Source text: as §1, §2, §3, §4

[7] = system: IFNα pSTAT4 (JAK1/TYK2); test: IFNα pSTAT4 (JAK1/TYK2) cellular assay, AlphaLISA in PBMCs; format: cell-based; settings: PBMC, IFNα 4 ng/mL
Description: The AlphaLISA assay (based on Alpha Technology from PerkinElmer) was performed by first plating freshly thawed PBMCs (Biological Specialty Corporation) in 384-well plates at 100,000 cells per 6 μL per well in DMEM (Dulbecco's Modified Eagle Medium) containing 10% FBS (fetal bovine serum) and 1,000 I.U./mL penicillin and 1,000 μg/mL streptomycin. The cells were then treated with 2 μL/well of compounds diluted in DMSO at half-log titrated concentrations, with a highest test concentration of 10 μM and 0.5% final DMSO concentration, for thirty minutes at 37° C. Next, the cells were stimulated with 2 μL/well of IFNα (PBL Assay Science Cat. No. 11101-2) at 4 ng/mL for thirty minutes at 37° C. The cellular reactions were terminated by the addition of 2 μL/well of lysis buffer (PerkinElmer Cat. No. ALSU-PST4-A10K) followed by an incubation of five minutes at room temperature. 4 μL/well of acceptor mix (PerkinElmer Cat. No. ALSU-PST4-A10K) was added to the cells and incubated in the dark for one hour at room temperature. Then, 4 μL/well of donor mix (PerkinElmer Cat. No. ALSU-PST4-A10K) was added to the cells and incubated in the dark overnight at room temperature. Finally, the plates were read on a PerkinElmer EnVision for detection of the time-resolved fluorescence signal. The percentage of IFNα-dependent pSTAT4 inhibition was determined at the compound test concentrations; and for each compound, a dose curve was generated and the IC50 was calculated. Compound IC50 was calculated by nonlinear regression, sigmoidal dose response analysis of the half-log dilution titration curve of the compound concentration vs. Alpha signal. The term “Alpha” is defined in the immediately preceding cellular assay description.

[8] = physchem; settings: thermodynamic from solid
[9] = In vivo oral (p.o.) dosing, plasma and colon concentrations (Protocols 1 and 2); parameters: species or system female C57BL/6 mice; settings: mice, 25 mg/kg p.o.
Description: These protocols are described below under the heading In vivo Studies. Three non-fasted female C57BL/6 mice were orally administered test compound at a dose of 25 mg/kg p.o. as a solution in 20% hydroxypropyl-beta-cyclodextrin (HPβCD) at a dose volume of 5 mL/kg. Blood samples were collected at 0.5, 2, and 4 h post dose via retro-orbital bleed or venipuncture of the dorsal metatarsal vein. Blood samples were collected into tubes containing anticoagulant (Heparin-Na) and placed on wet ice. […] Colon samples were collected at 4 h post dose. […] The colon was further washed by putting it in 5 mL of saline and shaken for 5 seconds. The colon sample was then patted dry, weighed, and homogenized as 1 part tissue (g) to 4 parts HPLC grade water (mL). Concentrations of the compound in plasma and colon homogenate were determined using a qualified liquid chromatography-triple quadrupole mass spectrometry (LC-MS/MS) method. […] Three non-fasted female C57BL/6 mice were orally administered test compound at a dose of 25 mg/kg p.o. as a solution in 20% HPβCD at a dose volume of 5 mL/kg. Blood samples were collected at 0.5, 2, and 4 h post dose via retro-orbital bleed or dorsal metatarsal vein. Blood samples were collected into tubes containing anticoagulant (Heparin-Na) and placed on wet ice. […] Colon samples were collected at 4 h post dose. […] The colon was further washed by putting it in 5 mL of saline and shaken for 5 seconds. The colon sample was then patted dry, weighed, and homogenized as 1 part tissue (g) to 4 parts HPLC grade water (mL). Concentrations of the compound in plasma and colon homogenate were determined using a qualified liquid chromatography-triple quadrupole mass spectrometry (LC-MS/MS) method.

[10] = MDCK-MDR1 permeability assay; format: in vitro ADME; settings: MDCK-MDR1, pH 7.4, @ 5 μM, apical to basolateral, with P-gp inhibitor elacridar (2 μM); read-out: MDCK-MDR1 P^eapp(A-B)
Description: as §5, §6, §7, §8, §9

[11] = MDCK-MDR1, pH 7.4, with elacridar 2 μM, @ 5 μM, with P-gp inhibitor elacridar (2 μM), read-out: MDCK-MDR1 P^eapp(A-B)
[12] = MDCK-MDR1, pH 7.4, @ 5 μM, without elacridar, read-out: MDCK-MDR1 Papp(A-B)

Chain of Tyk2-JH1JH2 (P29597 580-1182 C936A/C1142A): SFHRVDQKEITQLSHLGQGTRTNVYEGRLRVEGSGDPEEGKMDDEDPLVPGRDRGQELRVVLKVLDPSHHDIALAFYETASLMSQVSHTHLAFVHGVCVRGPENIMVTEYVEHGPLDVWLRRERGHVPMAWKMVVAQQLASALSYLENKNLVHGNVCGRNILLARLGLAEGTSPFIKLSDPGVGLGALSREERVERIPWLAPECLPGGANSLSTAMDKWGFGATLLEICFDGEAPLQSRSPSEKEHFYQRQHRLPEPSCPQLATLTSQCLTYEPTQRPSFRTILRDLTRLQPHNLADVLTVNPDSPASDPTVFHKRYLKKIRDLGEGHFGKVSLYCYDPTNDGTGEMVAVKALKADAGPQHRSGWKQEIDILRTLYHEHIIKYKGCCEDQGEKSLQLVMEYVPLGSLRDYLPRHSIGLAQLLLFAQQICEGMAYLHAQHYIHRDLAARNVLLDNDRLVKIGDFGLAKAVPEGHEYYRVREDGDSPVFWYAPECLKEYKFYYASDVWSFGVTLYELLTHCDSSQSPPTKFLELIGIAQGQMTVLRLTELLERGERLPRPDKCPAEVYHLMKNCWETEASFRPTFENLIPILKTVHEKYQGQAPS
Chain of JAK3-JH1JH2 (P52333 512-1124): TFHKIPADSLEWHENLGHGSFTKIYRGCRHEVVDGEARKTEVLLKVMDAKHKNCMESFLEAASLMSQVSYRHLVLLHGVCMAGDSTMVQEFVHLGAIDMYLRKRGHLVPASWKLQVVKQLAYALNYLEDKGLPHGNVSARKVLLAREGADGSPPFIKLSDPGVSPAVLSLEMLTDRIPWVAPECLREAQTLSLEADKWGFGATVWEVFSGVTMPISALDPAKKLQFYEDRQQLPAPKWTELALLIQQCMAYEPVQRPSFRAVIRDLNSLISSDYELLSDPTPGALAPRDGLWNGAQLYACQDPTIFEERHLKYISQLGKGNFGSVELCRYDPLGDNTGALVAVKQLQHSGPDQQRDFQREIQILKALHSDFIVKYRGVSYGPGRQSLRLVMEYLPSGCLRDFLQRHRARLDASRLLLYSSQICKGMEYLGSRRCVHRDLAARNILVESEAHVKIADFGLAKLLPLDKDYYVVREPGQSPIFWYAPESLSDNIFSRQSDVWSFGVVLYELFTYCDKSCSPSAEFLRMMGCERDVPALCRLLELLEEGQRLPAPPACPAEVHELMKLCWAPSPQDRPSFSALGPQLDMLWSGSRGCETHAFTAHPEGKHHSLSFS
Chain of JAK1-JH1JH2 (P23458 574-1154): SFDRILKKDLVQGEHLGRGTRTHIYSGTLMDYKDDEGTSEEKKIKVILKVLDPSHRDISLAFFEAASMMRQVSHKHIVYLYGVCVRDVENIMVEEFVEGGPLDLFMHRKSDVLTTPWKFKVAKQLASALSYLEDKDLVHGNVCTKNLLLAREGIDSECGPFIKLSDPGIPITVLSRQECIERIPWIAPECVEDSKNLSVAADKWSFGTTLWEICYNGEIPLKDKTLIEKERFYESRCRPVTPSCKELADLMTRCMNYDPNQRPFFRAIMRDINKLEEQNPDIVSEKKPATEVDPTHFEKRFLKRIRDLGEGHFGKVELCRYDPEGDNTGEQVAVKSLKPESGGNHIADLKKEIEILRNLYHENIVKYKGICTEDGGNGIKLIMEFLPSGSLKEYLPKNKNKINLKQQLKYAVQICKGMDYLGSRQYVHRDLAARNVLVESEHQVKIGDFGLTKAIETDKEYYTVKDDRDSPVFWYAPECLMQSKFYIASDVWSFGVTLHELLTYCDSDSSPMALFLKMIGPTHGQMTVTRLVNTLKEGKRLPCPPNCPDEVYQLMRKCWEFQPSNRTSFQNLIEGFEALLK

With `Cn1cc(NC(=O)Cc2nc3cnc4[nH]ccc4c3n2[C@H]2CC[C@H](CC#N)CC2)cn1` [Ex. 9, 2-(1-((1r,4r)-4-(Cyanomethyl)cyclohexyl)-1,6-dihydroimidazo[4,5-d]pyrrolo[2,3-b]pyridin-2-yl)-N-(1-methyl-1H-pyrazol-4-yl)acetamide] the IC50 [1] was 11.2 nM, the SIF solubility [2] was >400 µM and the Papp A→B at 60 min, 5 μM [3, 11] was 0.6 ×10⁻⁶ cm/s. For the same molecule, the IC50 [4] was 4.7 nM, the IC50 [5] was 79.9 nM and the IC50 [6] was 0.2 nM. The IC50 [7] was 35.9 nM.
In the case of `N#CC[C@H]1CC[C@H](n2c(CO)nc3cnc4[nH]ccc4c32)CC1` [B], the solubility ([8]; pH 6.5, fassif) is reported as 75 µM (≈ 23.2 µg/mL), the solubility ([8]; simulated gastric fluid) is reported as > 400 µM and the “Plasma Concentration After p.o. Dosing, Mean” value ([9]; Time = 0.5 h) is reported as 352.7 ng/mL. The “Plasma Concentration After p.o. Dosing, Mean” value ([9]; Time = 2 h) was 66.3 ng/mL, the “Colon Concentration After p.o. Dosing, Mean” value ([9]; Time = 4 h) was 6076.7 ng/g and the “Plasma Concentration After p.o. Dosing, Mean” value ([9]; Time = 4 h) was 11.3 ng/mL. For the same molecule, the Papp A→B [10] was 1.7 ×10⁻⁶ cm/s, the Papp A→B at 60 min, 5 μM [3, 12] was 0.4 ×10⁻⁶ cm/s and the Papp B→A at 60 min, 5 μM ([3]; @ 5 μM) was 23.5 ×10⁻⁶ cm/s. It also gave an efflux ratio at 60 min, 5 μM [3] of 59.
In the case of `Cc1nc2cnc3[nH]ccc3c2n1[C@H]1CC[C@H](CC#N)CC1` [A], the solubility ([8]; pH 6.5, fassif) is reported as > 400 µM, the solubility ([8]; simulated gastric fluid) is reported as > 400 µM and the “Plasma Concentration After p.o. Dosing, Mean” value ([9]; Time = 0.5 h) is reported as 347.0 ng/mL. The “Plasma Concentration After p.o. Dosing, Mean” value ([9]; Time = 2 h) was 69.1 ng/mL, the “Colon Concentration After p.o. Dosing, Mean” value ([9]; Time = 4 h) was 895.0 ng/g and the “Plasma Concentration After p.o. Dosing, Mean” value ([9]; Time = 4 h) was 84.5 ng/mL. It also gave a Papp A→B [10] of 22 ×10⁻⁶ cm/s, a Papp A→B at 60 min, 5 μM [3, 12] of 1.3 ×10⁻⁶ cm/s and a Papp B→A at 60 min, 5 μM ([3]; @ 5 μM) of 55.3 ×10⁻⁶ cm/s. It also gave an efflux ratio at 60 min, 5 μM [3] of 43.
In the case of `N#CC[C@H]1CC[C@H](n2c(CC(=O)Nc3cc[nH]n3)nc3cnc4[nH]ccc4c32)CC1` [Ex. 11, 2-(1-((1r,4r)-4-(Cyanomethyl)cyclohexyl)-1,6-dihydroimidazo[4,5-d]pyrrolo[2,3-b]pyridin-2-yl)-N-(1H-pyrazol-3-yl)acetamide], the IC50 [1] is reported as 49.1 nM, the SIF solubility [2] is reported as >400 µM and the Papp A→B at 60 min, 5 μM [3, 11] is reported as 0.8 ×10⁻⁶ cm/s. For the same molecule, the IC50 [4] was 1.5 nM, the IC50 [5] was 30.3 nM and the IC50 [6] was 0.4 nM. It also gave an IC50 [7] of 96.5 nM.
